Drawing on paper PMC4979471 (Cell Death Discovery, 2015), this text covers remaining activity for one compound.

Structures are written as SMILES. Read-outs that look alike come from different tables or passages of the source.

Assay in all cases: Kinase selectivity, P33-radiolabeled assay
Common to all, as to type: biochemical
Conditions in all cases: 10 μM ATP

For one assay, the target named is T1, EPHB1 (Homo sapiens, UniProt P54762).
T1 construct: purchased Reaction Biology Corp
T1 sequence (P54762 18-984): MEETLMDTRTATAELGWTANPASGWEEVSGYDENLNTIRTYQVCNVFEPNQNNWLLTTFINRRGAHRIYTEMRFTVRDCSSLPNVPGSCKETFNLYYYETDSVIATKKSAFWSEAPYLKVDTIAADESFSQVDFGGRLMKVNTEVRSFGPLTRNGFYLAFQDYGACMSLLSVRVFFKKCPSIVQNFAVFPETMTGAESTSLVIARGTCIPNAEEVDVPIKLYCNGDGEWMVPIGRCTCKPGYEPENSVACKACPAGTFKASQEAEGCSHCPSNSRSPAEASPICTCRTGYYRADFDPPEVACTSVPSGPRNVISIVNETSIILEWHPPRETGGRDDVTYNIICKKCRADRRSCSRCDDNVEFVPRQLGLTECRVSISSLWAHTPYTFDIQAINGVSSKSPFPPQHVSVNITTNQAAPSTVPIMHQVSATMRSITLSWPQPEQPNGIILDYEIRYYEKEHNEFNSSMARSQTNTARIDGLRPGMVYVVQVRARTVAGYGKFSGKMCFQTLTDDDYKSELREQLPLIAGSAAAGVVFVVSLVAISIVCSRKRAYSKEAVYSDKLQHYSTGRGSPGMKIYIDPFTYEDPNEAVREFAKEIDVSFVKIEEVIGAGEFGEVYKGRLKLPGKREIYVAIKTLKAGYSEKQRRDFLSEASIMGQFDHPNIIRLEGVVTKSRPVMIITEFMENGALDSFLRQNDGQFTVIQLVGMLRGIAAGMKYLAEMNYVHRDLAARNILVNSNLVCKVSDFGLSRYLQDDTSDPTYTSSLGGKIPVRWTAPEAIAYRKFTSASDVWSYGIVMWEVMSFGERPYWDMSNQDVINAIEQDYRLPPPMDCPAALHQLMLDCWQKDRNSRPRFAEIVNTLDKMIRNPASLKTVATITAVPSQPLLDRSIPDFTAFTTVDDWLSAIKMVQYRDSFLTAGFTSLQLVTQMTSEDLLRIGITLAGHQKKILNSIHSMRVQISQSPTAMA
In short, it runs like this: (§1)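 Activity relative to DMSO controls (%) was measured for compound at 10 μM. Assays ran at 10 μM ATP, in duplicate.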

The next assay addresses T2, DYRK1B (Homo sapiens, UniProt Q9Y463).
T2 construct: purchased Reaction Biology Corp
The procedure, abridged:
as §1

A further assay deals with T3, EPHA1 (Homo sapiens, UniProt P21709).
T3 construct: purchased Reaction Biology Corp
T3 sequence (P21709 26-976): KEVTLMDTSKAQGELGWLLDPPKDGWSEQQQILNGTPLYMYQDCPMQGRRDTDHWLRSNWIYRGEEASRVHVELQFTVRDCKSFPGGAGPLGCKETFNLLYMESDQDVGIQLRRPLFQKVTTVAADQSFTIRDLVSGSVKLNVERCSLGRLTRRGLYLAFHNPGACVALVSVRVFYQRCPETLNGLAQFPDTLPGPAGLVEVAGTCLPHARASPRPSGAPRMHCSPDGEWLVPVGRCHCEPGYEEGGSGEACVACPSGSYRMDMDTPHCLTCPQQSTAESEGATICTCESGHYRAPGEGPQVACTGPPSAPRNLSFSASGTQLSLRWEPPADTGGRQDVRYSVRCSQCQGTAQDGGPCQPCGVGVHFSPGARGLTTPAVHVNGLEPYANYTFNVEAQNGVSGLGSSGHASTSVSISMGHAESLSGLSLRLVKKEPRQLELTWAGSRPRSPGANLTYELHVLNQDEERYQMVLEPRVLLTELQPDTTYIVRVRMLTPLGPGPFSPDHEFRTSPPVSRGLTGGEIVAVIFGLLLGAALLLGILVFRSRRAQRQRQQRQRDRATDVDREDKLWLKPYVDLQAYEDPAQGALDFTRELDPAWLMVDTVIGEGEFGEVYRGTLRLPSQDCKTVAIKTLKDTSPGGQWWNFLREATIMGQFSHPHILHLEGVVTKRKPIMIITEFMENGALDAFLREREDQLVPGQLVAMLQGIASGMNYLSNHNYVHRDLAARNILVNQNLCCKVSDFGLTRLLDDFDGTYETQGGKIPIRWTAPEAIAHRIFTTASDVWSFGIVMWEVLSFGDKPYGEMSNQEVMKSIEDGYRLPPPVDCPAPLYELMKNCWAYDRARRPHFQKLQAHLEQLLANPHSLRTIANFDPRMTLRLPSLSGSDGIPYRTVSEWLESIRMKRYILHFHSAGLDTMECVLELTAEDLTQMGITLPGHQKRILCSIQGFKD
In short, it runs like this:
as §1

A further assay has as its target T4, NEK3 (Homo sapiens, UniProt P51956).
T4 construct: purchased Reaction Biology Corp
T4 sequence (P51956 1-506): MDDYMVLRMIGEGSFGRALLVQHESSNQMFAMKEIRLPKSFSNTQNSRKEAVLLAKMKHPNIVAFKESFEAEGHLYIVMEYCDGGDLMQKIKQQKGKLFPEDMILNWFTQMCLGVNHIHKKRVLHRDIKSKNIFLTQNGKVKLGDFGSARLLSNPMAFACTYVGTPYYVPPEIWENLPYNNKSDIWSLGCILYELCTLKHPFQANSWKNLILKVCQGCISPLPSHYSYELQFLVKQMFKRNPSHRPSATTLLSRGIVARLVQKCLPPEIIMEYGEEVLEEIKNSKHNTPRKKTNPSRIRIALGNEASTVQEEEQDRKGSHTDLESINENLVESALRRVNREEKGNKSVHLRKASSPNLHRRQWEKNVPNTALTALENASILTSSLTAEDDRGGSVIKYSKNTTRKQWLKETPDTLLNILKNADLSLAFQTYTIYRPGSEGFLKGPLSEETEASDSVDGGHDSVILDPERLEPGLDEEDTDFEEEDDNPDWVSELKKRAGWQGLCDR
The procedure, abridged: as §1

Setting [1] is: read-out: % Enzyme Activity (relative to DMSO controls) AVG.
The mark [2] stands for this setting: read-out: % Enzyme Activity (relative to DMSO controls) Data 1.
Where [3] appears, read: read-out: % Enzyme Activity (relative to DMSO controls) Data 2.

T2 sequence (Q9Y463 whole entry): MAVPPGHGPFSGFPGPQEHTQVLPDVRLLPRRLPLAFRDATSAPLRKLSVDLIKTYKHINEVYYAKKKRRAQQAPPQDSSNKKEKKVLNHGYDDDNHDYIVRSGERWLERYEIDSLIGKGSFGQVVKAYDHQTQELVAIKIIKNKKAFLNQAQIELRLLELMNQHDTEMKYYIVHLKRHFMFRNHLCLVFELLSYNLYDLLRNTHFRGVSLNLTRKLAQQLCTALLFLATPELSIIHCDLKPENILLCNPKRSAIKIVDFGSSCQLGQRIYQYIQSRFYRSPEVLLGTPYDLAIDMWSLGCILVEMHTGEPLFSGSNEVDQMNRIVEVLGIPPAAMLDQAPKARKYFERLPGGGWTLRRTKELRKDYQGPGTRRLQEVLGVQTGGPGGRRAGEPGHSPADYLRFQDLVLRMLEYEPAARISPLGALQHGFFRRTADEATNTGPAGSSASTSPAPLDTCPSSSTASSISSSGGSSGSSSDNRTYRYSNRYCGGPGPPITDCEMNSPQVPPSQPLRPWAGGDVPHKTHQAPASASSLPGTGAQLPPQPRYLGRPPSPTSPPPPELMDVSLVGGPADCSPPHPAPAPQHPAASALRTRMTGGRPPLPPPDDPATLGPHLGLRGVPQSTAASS

With `CC(C)(C)C(=O)N1N=CC[C@H]1c1ccccc1` [GSK′963], the remaining activity at 10 µM at EPHB1 (setting [1]) worked out at 99.4%; on EPHB1 (setting [2]) it was 98.8%; on EPHB1 (setting [3]) it was 100%; on DYRK1B (setting [1]), 102%; at DYRK1B (setting [2]), 103%; on DYRK1B (setting [3]), 101%. Moreover, the remaining activity at 10 µM is 106% on EPHA1 (setting [1]); 107% at EPHA1 (setting [2]); 106% on EPHA1 (setting [3]); 93.5% on NEK3 (setting [1]); 93.2% at NEK3 (setting [2]); 93.8% at NEK3 (setting [3]).
